The values that follow come from patent US20260232684A1, “FLT3 INHIBITORS AND METHODS OF USING THE SAME” (BIOVENTURES, LLC, priority 2023, published 2026).

The test system of data set [1] is Molm14 cells (FLT3-ITD-expressing). The data set is described as follows: Cell viability assay (CellTiter GLO), Molm14. The data set is classed as cell-based, human. To be noted: Molm14, 48 hours. As for the experimental part: (§1) FIG. 1. […] Cells were treated with inhibitor at increasing log doses (0.1 nM-10 μM) for 48 hours. Cell viability was analyzed through CellTiter GLO. […] Cells were exposed to increasing amounts of each drug for 2 hours. GAPDH1 represents loading control for phospho-ERK and ERK blots. GAPDH2 represents loading control for phosphor-STAT5, STAT5, phospho-S6 and S6. Each experiment was completed in triplicate. Representative images are shown.
(§2) FIG. 5. […] Cells were dosed with inhibitor at increasing log doses (0.1 nM-10 μM) for 48 hours. Cell viability was analyzed through CellTiter GLO.
(§3) MV-4-11 and parental Molm-14 cells were a gift from Dr. Scott Kogan (University of California, San Francisco). HL60 and K562 cell lines were obtained from Charles Sawyers. […] Stable Ba/F3 lines were generated by retroviral infection as previously described (5). All cell lines were tested to be mycoplasma free and human cell lines were authenticated through STR profiling completed at the University of California, Berkeley.
(§4) Each triplicate was either dosed with drug or DMSO vehicle control. Drug dosing was completed at log doses ranging from 0.1 nM-10 μM. Cell viability was assessed after 48 hours using CellTiter GLO (Promega). Viability values were normalized to the vehicle control average. Numerical IC50 values were calculated in GraphPad Prism 7.
A general note: ATP-based viability assays read luminescence as a measure of living cells.

In data set [2] the test system is Molm14 F691L cells. The data set is described as follows: Cell viability assay (CellTiter GLO), Molm14 F691L. The data set is classed as cell-based, human. To be noted: 48 hours. As to the method: as §1, §2, §3, §4
For data set [3], the system named is K562 cells (non-FLT3 driven). Kind of data set: Cell viability assay (CellTiter GLO), K562. As to conditions: K562, 48 hours. The data set is classed as cell-based, human. As for the experimental part: as §1, §3, §4
Data set [4] has as its system Ba/F3 cells transduced with mutagenized FLT3-ITD. Kind of data set: Saturation mutagenesis resistance selection (XL1-Red mutagenized FLT3-ITD). The data set is classed as cell-based. To be noted: Ba/F3 cells with FLT3-ITD mutant isoforms (FIG. 10). The text has this: FIG. 10. (A) Schematic depicting the saturation mutagenesis experimental design and the range of concentrations for compound 1 and compound 2 to select for resistant cells; (B) Population doublings of XL1-Red-mutagenized FLT3-ITD plasmid-transduced Ba/F3 cells in escalating concentrations of compound 1 and compound 2. Arrows indicate the timepoint of passage when a concentration of 0.1 million cells/mL was achieved; (C) Western blot analysis of lysates collected from transduced Ba/F3 cells cultured in (lane 1) vehicle; (lane 2) 120 nM of compound 1; (lane 3) 120n M of compound 2 (lane 4) Ba/F3 cells transduced with MSCVpuro; (lane M) size marker. […] Left table: identity of mutations detected at escalating concentrations of compounds 1 and 2. Right table: IC50 values of compounds 1 and 2 in Ba/F3 cells transformed to growth factor independence with FLT3-ITD and various mutant isoforms.
To determine if these compounds are potentially vulnerable to novel secondary mutations in FLT3-ITD, Ba/F3 cells were transduced with retrovirus generated using MSCVpuro/FLT3-ITD plasmid purified from the XL1-Red bacterial strain, which is deficient in DNA mismatch repair and introduces random point mutations. This assay has successfully identified point mutations for other FLT3 TKIs that were subsequently validated in samples obtained from patients with acquired resistance. […]

Data set [5] deals with TKI-naïve primary AML patient samples expressing FLT3-ITD. The data set is described as follows: Short-term liquid culture growth inhibition of primary AML samples. To be noted: 100 nM, up to 7 days, CellTiter GLO, five patient samples. The data set is classed as cell-based, human. As to the method:
FIG. 11. Activity of compounds against primary FLT3-ITD AML samples in short term liquid culture assays. […] Plates were incubated with drug for 0, 1, 2, 3, 5 or 7 days. FLT3 mutation is noted for each patient in parentheses. Cell viability was analyzed through CellTiter GLO.
The compounds were further evaluated for activity against TKI-naïve primary AML patient samples expressing FLT3-ITD in short-term liquid culture growth inhibition assays (24).

For data set [6], the system named is FLT3 phosphorylation in Ba/F3 cells stably expressing FLT3-ITD in human plasma. The data set is described as follows: Plasma inhibitory assay. As to conditions: for inhibition of FLT3 in the presence of human plasma, in words: 120 minutes, same concentrations as comparators. The data set is classed as cell-based. As for the experimental part:
A pitfall of some prior FLT3 inhibitors has been poor pharmacokinetic profiles. The plasma inhibitory assay identifies one pharmacokinetic profile by evaluating the activity of drugs in the presence of human plasma proteins that can sequester inhibitors in clinical experience.
Plasma Inhibitory Assay was performed as previously described with modifications (40). Ba/F3 cells (7×10^6 cells) stably expressing FLT3-ITD were resuspended in 1 mL of RPMI 1640+10% FBS or human plasma from a healthy control. All samples were collected under the University of California, San Francisco institutional review board (IRB)-approved cell banking protocol (CC #112514). Informed consent was obtained in accordance with the Declaration of Helsinki. The appropriate amount of drug was added and incubated at 37° C. for 120 minutes. Following, cells were washed in PBS and lysed in HEPES lysis buffer supplemented with protease and phosphatase inhibitors and processed as previously described (40,41). Immunoblotting was performed using anti-phospho-FLT3 and anti-FLT3 antibody (Cell Signaling).

The subject of data set [7] is panel of 468 kinases and kinase mutants. The data set is described as follows: KINOMEscan screening. The data set is classed as binding. To be noted: for number of kinases bound relative to gilteritinib: 20× the Molm14 IC50 concentration of each compound.
Data set [8] has as its target FLT3 (Homo sapiens, UniProt P36888). Kind of data set: Enzyme kinetic analysis (5-FAM microfluidic assay), FLT3. The data set is classed as biochemical. To be noted: variable ATP and inhibitor concentrations. As to the method: FIG. 14. Enzyme kinetic analysis of compound 1 and 2 against FLT3 and FLT3 D835Y. The 5-FAM labeled microfluidic assay was utilized and all the activities were measured using Caliper EZ Reader II with a 12-sipper chip. In the presence of variable concentrations of compound 1 or 2, phosphorylation activities of FLT3 and FLT3 D835Y were measured at different level of ATP within certain time durations.
To further assess putative binding modes of compounds 1 and 2, enzyme kinetic analyses were performed.

The subject of data set [9] is FLT3 signaling in Molm14 subcutaneous xenografts. The data set is described as follows: In vivo target inhibition in Molm14 subcutaneous xenografts. Also on record: species or system mice. As to conditions: for oral bioavailability and pharmacokinetic profile, in words: mice, oral gavage; for inhibition of target and downstream effectors at 4 hour and 8 hours: single dose by oral gavage, all doses, Western blot of tumors. The source says:
FIG. 6. Assessment of in vivo target inhibition by compounds 1 and 2 in Molm14 subcutaneous xenografts. Western blot analysis of 1 and 2 in a Molm14 xenograft model.
In general terms: Immunoblotting shows a protein as a band on a membrane.

“Also recorded” adds a separate entry of the source.

FLT3, sequence (P36888 27-993): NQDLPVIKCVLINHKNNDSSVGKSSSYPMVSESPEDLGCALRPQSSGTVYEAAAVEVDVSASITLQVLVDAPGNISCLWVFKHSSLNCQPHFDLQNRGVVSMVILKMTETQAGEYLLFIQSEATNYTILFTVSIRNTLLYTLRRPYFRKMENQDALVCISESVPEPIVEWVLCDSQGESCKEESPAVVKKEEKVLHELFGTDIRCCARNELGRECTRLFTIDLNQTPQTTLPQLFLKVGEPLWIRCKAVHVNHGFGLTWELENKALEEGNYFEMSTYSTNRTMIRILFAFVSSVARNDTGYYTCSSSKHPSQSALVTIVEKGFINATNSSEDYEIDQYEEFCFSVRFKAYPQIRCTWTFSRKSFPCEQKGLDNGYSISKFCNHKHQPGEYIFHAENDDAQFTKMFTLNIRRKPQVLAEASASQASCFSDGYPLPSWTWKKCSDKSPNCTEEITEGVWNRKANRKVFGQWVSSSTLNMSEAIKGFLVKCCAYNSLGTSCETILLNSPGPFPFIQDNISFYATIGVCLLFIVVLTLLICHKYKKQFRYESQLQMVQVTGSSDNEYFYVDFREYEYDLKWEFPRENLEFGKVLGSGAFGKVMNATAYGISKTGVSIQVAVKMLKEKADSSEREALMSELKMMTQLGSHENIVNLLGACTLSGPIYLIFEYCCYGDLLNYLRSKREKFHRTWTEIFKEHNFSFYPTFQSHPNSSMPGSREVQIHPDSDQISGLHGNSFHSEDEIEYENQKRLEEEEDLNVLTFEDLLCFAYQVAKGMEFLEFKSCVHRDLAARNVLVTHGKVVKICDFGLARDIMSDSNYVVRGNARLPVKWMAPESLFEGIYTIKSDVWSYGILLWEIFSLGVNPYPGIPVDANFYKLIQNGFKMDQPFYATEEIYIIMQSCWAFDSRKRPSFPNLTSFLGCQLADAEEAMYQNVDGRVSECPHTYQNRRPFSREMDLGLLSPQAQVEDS

Take `CN(C)CCNc1ncc(F)c(-c2cnc3cc(-c4cnn(C)c4)ccn23)n1` [Compound 1]: the “activity in cell viability assay (IC50, FIG. 1A/5B), in words” value (shortened to “activity … (IC50, FIG. 1A/5B), in words”) in data set [1] is “activity comparable to quizartinib and superior to gilteritinib”. Besides, the “activity … (IC50, FIG. 1A/5B), in words” value in data set [2] is given as “retain activity”. In data set [3], the “activity in cell viability assay (IC50, FIG. 1A), in words” value is given as “neither compound displayed any concerning toxicity”. For the same molecule, the “resistance conferred by secondary FLT3 mutations that confer relative resistance to other FLT3 TKIs” value in data set [4] was “none of these were capable of conferring significant resistance”. Further, in data set [5], the “activity against primary FLT3-ITD AML samples, in words” value is “activity comparable to quizartinib and gilteritinib in all samples”. In addition, the “impact of the presence of plasma on activity” value in data set [6] (human plasma vs RPMI 1640+10% FBS) is given as “almost no impact”. The “inhibition of FLT3 in the presence of human plasma, in words” value in data set [6] is “more potent inhibition of FLT3 in the presence of plasma compared to quizartinib and gilteritinib”. Also, the “selectivity profile, in words” value in [7] (20× the Molm14 IC50 concentration) is recorded as “remarkable selectivity profile”. The “number of kinases bound relative to gilteritinib” value in [7] was “bound to far fewer kinases than gilteritinib”. The “six kinases bound with greatest affinity” value in data set [7] (KINOMEscan analysis) is “FLT3, IRAK4, PHGK1, PHGK2, CDK7, TRKA”. In addition, in data set [8], the “binding mode / inhibitor type from enzyme kinetics” value was “type 1 inhibitor; also recorded: type 1 binding mode”. Further, in [9], the “oral bioavailability and pharmacokinetic profile, in words” value is “oral bioavailability and acceptable pharmacokinetic profiles”; the “inhibition of target and downstream effectors at 4 hour and 8 hours” value is “inhibition of target and downstream effectors at all doses”. In addition, the “target inhibition at 24 hours” value in data set [9] (single oral dose, 2 mg/kg and 10 mg/kg) is “sufficient for retaining target inhibition for 24 hours”.
As to `CC(C)(C)c1cc(NC(=O)Cc2ccc(-c3cnc4cc(-c5cnn(CCN6CCOCC6)c5)ccc4n3)cc2)no1` [Compound 2, N-(5-(tert-butyl)isoxazol-3-yl)-2-(4-(6-(1-(2-morpholinoethyl)-1H-pyrazol-4-yl)quinoxalin-2-yl)phenyl) acetamide], the “activity … (IC50, FIG. 1A/5B), in words” value is “activity comparable to quizartinib and superior to gilteritinib” in data set [1]; “retain activity” in [2]. The “activity in cell viability assay (IC50, FIG. 1A), in words” value in data set [3] was “neither compound displayed any concerning toxicity”. Also, the “resistance conferred by secondary FLT3 mutations that confer relative resistance to other FLT3 TKIs” value in data set [4] is on record as “none of these were capable of conferring significant resistance”. Also, the “activity against primary FLT3-ITD AML samples, in words” value in data set [5] was “most potent activity of all the compounds”. Besides, the “inhibition of FLT3 in the presence of human plasma, in words” value in data set [6] was “more potent inhibition of FLT3 in the presence of plasma compared to quizartinib and gilteritinib”. In addition, the “number of kinases bound relative to gilteritinib” value in [7] was “bound to far fewer kinases than gilteritinib”. Further, the “binding mode / inhibitor type from enzyme kinetics” value in data set [8] is reported as “type 2 inhibitor; also recorded: type 2 binding mode”. Besides, in [9], the “oral bioavailability and pharmacokinetic profile, in words” value was “oral bioavailability and acceptable pharmacokinetic profiles”. In addition, the “inhibition of target and downstream effectors at 4 hour and 8 hours” value in data set [9] is “inhibition of target and downstream effectors at all doses”. In data set [9] (single oral dose, 10 mg/kg), the “target inhibition at 24 hours” value is reported as “sustained target inhibition”. Moreover, the “kinase signaling at 24 hours” value in [9] (single oral dose, lower doses) is “kinase signaling was restored”.
